Measurements published in PubChem BioAssay AID1320 (NMMLSC, 2008).
Activity calls are given as the source filed them. No rule for the calls is given here.

target: Bcl-2-related protein A1 (Homo sapiens) (UniProt Q16548); test: Bfl-1/Bim complex disruptors – biochemical, multiplexed, bead-based flow cytometry, dose response (AID 1320); details: Bim peptide-Bfl-1 binding, fluorescence; as to percent span (inhibition): test concentration not given here
Sequence (Q16548 whole entry, looked up): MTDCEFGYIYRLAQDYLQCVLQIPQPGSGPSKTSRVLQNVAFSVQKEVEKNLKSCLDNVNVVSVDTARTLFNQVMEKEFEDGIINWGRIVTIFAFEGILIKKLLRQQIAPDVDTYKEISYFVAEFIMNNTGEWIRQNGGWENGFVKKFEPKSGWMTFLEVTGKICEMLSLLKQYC

| SMILES | EC50 |
| --- | --- |
| Fc1ccc(/C=C2\CCCC3=C2NC(=S)NC3c2ccc(F)cc2)cc1 (configuration not stated) | inactive |

same assay, conditions: Bim peptide-Bfl-1 binding, fluorescence

| SMILES | percent span (inhibition) |
| --- | --- |
| O=C1c2ccccc2C(=O)c2cc(S(=O)(=O)Nc3ccccc3)ccc21 | inactive |
| CCSc1nnc(NC(=O)c2c(-c3ccccc3Cl)noc2C)s1 | inactive |
| O=C(C[n+]1ccc(-c2nnc3n2CCC3)cc1)c1ccc(Cl)cc1 | inactive |
| Cc1cc(-c2nn(-c3ccccc3)cc2/C=C2\SC(N)=NC2=O)ccc1OC(C)C | inactive |
| COc1cc(N2CCOCC2)ccc1C=C1C(=O)NC(=O)NC1=O | inactive |
| CN1/C(=C\C(=O)Nc2ccc(Cl)cc2)C(C)(C)c2ccccc21 | inactive |
| CC(=O)Nc1ccc2nc(CN3CCN(CC(C)C)C(CCO)C3)ccc2c1 (configuration not stated) | inactive |
| COCCN=c1scc(-c2ccco2)n1/N=C/c1ccc(O)c(O)c1O | inactive |
| Fc1ccccc1/C=C1\CCCC2=C1NC(=S)NC2c1ccccc1F (configuration not stated) | inactive |
| COc1ccc(Cc2c(O)nc(SC)n(C(C)=O)c2=O)cc1 | inactive |
| O=C1Nc2ccc([N+](=O)[O-])cc2OC1CCN1CCN(Cc2ccc3c(c2)OCO3)CC1 (configuration not stated) | inactive |
| CC1=NN(c2ccc(C)cc2)C(=O)/C1=C\c1ccc(Br)s1 | inactive |
| CN(C)c1ccc(/C=C2/SC(=O)N(CCN=C3NS(=O)(=O)c4ccccc43)C2=O)cc1 | inactive |
| Cc1ccc(C(=O)N(CCCN(C)C)c2nc3ccc(Cl)cc3s2)cc1C | inactive |
| c1cncc(-c2nnc3n2N=C(c2cccs2)CS3)c1 | inactive |
| S=C1NC2=C(CCC/C2=C\c2ccccc2)C(c2ccccc2)N1 (configuration not stated) | inactive |
| COc1ccc(NC(=O)c2ccc(CN3CCN(c4ccccc4)CC3)cc2)cc1 | inactive |
| O=C(O)c1ccccc1NSc1ccccc1[N+](=O)[O-] | inactive |
| CCOC(=O)CSc1nnc(-c2cccc(Cl)c2)n1CC | inactive |
| COc1ccc(NC(=O)c2cccs2)cc1 | inactive |
| CNc1ccc(Br)cc(C(=O)/C=C/c2ccc(OC)cc2OC)c1=O | inactive |
| Cc1cc(C)cc(NS(=O)(=O)c2ccc3c(c2)c(=O)n(C)c(=O)n3C)c1 | inactive |
| Cc1cc(-c2csc(N)n2)c(C)n1CCC(C)C | inactive |
| O=C(O)/C=C/C(=O)NNC(=O)c1ccc(Br)cc1 | inactive |

| SMILES | percent span (inhibition) |
| --- | --- |
| CNC(=O)/C(C#N)=C/c1c(N(Cc2ccccc2)Cc2ccccc2)nc2c(C)cccn2c1=O | inactive |
| COc1ccc(C(=S)N2CCCCCC2)cc1 | inactive |
| CN(C)c1cccc(NC(=O)C2(C)CC2(Cl)Cl)c1 (configuration not stated) | inactive |
| CCOc1c(Cl)cc(CNc2ccc(N3CCCC3)cc2)cc1OC | inactive |
| COc1ccc(C2=Nn3c(nnc3-c3ccccn3)SC2)cc1OC | inactive |
| O=C(O)C1=C[C@H](C2CC2)C[C@H](OCCCCO)O1 | inactive |
| Cc1cc(N/C(=N/S(=O)(=O)c2cc(F)ccc2F)c2ccccc2)n(-c2ccccc2)n1 | inactive |
| Cc1cc(Cl)c(S(=O)(=O)NCC2CCCO2)cc1OCC(N)=O (configuration not stated) | inactive |
| O=C(CSc1ccc2nnc(-c3ccccn3)n2n1)Nc1nccs1 | inactive |
| CC[n+]1c(/C=C/C=C/N(C(C)=O)c2ccccc2)sc2ccccc21 | inactive |
| COc1cc(/C=N/Nc2nc3c(c(=O)n(C)c(=O)n3C)n2Cc2ccccc2)ccc1OC(=O)c1ccco1 | inactive |
| CCOCCCNc1nc(=S)[nH]c2cc(OC)c(OC)cc12 | inactive |
| COc1ccccc1-n1c(SCC(=O)N2CCc3ccccc32)nc2c(c1=O)SCC2 | inactive |
| O=C(COC(=O)c1ccccn1)NC1CCCCC1 | inactive |
| CS(=O)(=O)NN1C(=O)c2ccccc2NC1c1ccccc1 (configuration not stated) | inactive |
| Cc1ccc(S(=O)(=O)N2CCCCC2)cc1NC(=O)COC(=O)c1ccccc1F | inactive |
| COc1ccc(NS(=O)(=O)c2cc(NC(=O)c3ccc(C)o3)ccc2N2CCCCC2)cc1 | inactive |
| O=C(/C=C/c1ccc(-c2ccccc2)o1)c1ccccc1 | inactive |
| CCc1nnc(NC(=O)CSc2nnc(COc3ccc(C)cc3)n2-c2ccccc2)s1 | inactive |
| COc1ccccc1OCc1ccc(C(=O)Nc2ccccc2F)cc1 | inactive |
| Cc1ccc(NC(=O)c2cc(S(=O)(=O)NCCC3=CCCCC3)ccc2F)cc1F | inactive |
| COc1ccc2nc(NC(=O)c3ccc(-c4cccc([N+](=O)[O-])c4)o3)sc2c1 | inactive |
| Cc1ccc(NN2C(=O)C=CC2=O)cc1 | inactive |
| CN1N=C(C(=O)N2CCCC(C(=O)c3cccc(C(F)(F)F)c3)C2)CCC1=O (configuration not stated) | inactive |

| SMILES | percent span (inhibition) |
| --- | --- |
| Cc1cc(C)nc(SCc2cc(=O)c(OC(=O)c3cccc([N+](=O)[O-])c3)co2)n1 | inactive |
| Cc1cc(-c2nnc3n2N=C(c2ccc(-c4ccccc4)cc2)CS3)n[nH]1 | inactive |
| CCN1CCN(c2cc(C)c3cc(NC(=S)N4CCN(c5ccc(F)cc5)CC4)ccc3n2)CC1 | inactive |
| COCCNC(=O)CN1CCC(NC(=O)Nc2ccccc2)CC1 | inactive |
| Cc1ccc(NC(=O)CC2S/C(=N/N=C/c3c[nH]c4ccccc34)NC2=O)cc1 (configuration not stated) | inactive |
| O=C1/C(=C/c2cccs2)Sc2ccccc21 | inactive |
| CCOc1ccccc1NC(=O)CSc1ccc2nnc(-c3cccnc3)n2n1 | inactive |
| O=C1c2ccccc2C(=O)N1c1cccc2cccnc12 | inactive |
| O=C(Nc1nccs1)c1ccc(COc2ccc(F)cc2)o1 | inactive |
| Cc1ccc(-c2cc(C(=O)Nc3cccnc3)c3ccccc3n2)o1 | inactive |
| COc1ccc(C2CC(=O)C3=C(C2)Nc2ccccc2NC3c2coc3ccccc3c2=O)cc1OC (configuration not stated) | inactive |
| Cc1ccc2nc3c(cc(C(N)=S)c(=N)n3CCCOC(C)C)c(=O)n2c1 | inactive |
| O=C(CSc1nnc(-c2ccco2)n1Cc1ccccc1)c1ccccc1 | inactive |
| CCc1nn2cc(C(=O)c3cc(C)ccc3O)cnc2c1-c1ccc(F)cc1 | inactive |
| CCN1/C(=C/c2ccc3cc(C)cc(C)c3[n+]2CC)Sc2cc(C)ccc21 | inactive |
| CN1C(=O)/C(=C/c2ccc(-c3ccccc3[N+](=O)[O-])o2)SC1=Nc1ccc(Cl)c(C(=O)O)c1 | inactive |
| CNCc1ccccc1Sc1cc(O)ccc1O | inactive |
| Cc1cc(C(=O)NCCCN(C)C)c2ccccc2n1 | inactive |
| CC(CCc1ccccc1)NC(=O)C1CCN(S(=O)(=O)N2CCCCC2)CC1 (configuration not stated) | inactive |
| COc1ccc(N=C2NC(=O)/C(=C\C=C\c3ccco3)S2)cc1 | inactive |
| Cc1ccc(CNc2ccc3c(c2)OCO3)c(C)c1 | inactive |
| Clc1nc2ccccc2cc1/C=N/Nc1nc2ccccc2[nH]1 | inactive |
| Brc1ccc2ncnc(Nc3ccc(N4CCOCC4)cc3)c2c1 | inactive |
| O=C(COc1ccc(Br)cc1CNC1CCCCC1)NCCc1ccccc1 | inactive |

| SMILES | percent span (inhibition) |
| --- | --- |
| COC(=O)CSc1nccc(-c2cccs2)n1 | inactive |
| Cc1nn(-c2ccc(Cl)c(Cl)c2)c(C)c1C(=O)O | inactive |
| Cc1ccc(C)c(NC(=O)C(=O)NCc2ccccn2)c1 | inactive |
| Cc1ccnc(SCc2cc(=O)c(OC(=O)c3ccc(Cl)c([N+](=O)[O-])c3)co2)n1 | inactive |
| Cc1cc(/C=C(/C#N)C(=O)Nc2ccc(Cl)cc2)c(C)n1-c1cccnc1 | inactive |
| Cc1nnc(NCc2n[nH]c(=O)c3ccccc23)c2ccccc12 | inactive |
| O=C(c1cccc(Br)c1)N1CCN(c2cnn(-c3ccccc3)c(=O)c2Cl)CC1 | inactive |
| COc1cc(NC(=O)c2ccc3c(c2)OCO3)ccc1NC(=O)c1ccco1 | inactive |
| CCOc1cc(CNc2ccc(N3CCCCC3)cc2)cc(Br)c1OCC(=O)NC(C)(C)C | inactive |
| Fc1ccc(Cn2nnnc2C(c2ccc(Cl)cc2)N2CCSCC2)cc1 (configuration not stated) | inactive |
| COc1ccc(-c2noc(COc3ccc4c(c3)OCO4)n2)cc1OC | inactive |
| COc1ccccc1Oc1ccc2c(c1)C(=O)N(c1cccc3ncccc13)C2=O | inactive |
| O=C(NCCCN1CCCC1=O)NC1CCCCC1 | inactive |
| NC(=O)c1c(NC(=O)C2CCCO2)sc2c1CCCC2 (configuration not stated) | inactive |
| CN(Cc1ccccc1)C(=O)c1[nH]cnc1C(=O)N[C@@H](CCCCNC(=O)OC(C)(C)C)C(=O)OC(C)(C)C | inactive |
| CCCCNC(=O)c1ccc2nc(-c3ccco3)c(-c3ccco3)nc2c1 | inactive |
| Cc1cc(NC(=O)CSc2nnc(-c3cccnc3)n2Cc2ccccc2)no1 | inactive |
| Cc1cc(NC(=O)CCCC(=O)N(CC(=O)NC2CCCCC2)c2ccccc2)no1 | inactive |
| N=C1C(c2nc3ccccc3s2)=C(O)CN1Cc1ccccc1 | inactive |
| COc1cc2c(cc1OC)C(c1ccccc1F)OC(=O)C2 (configuration not stated) | inactive |
| CC(C)(C)c1nc(NCCN2CCOCC2)c2nnn(Cc3ccccc3Cl)c2n1 | inactive |
| CCCOc1ccc(-c2c(C(=O)N/N=C/c3ccc(OC)cc3)nnn2-c2nonc2N)cc1 | inactive |
| CCSc1ncnc2sc(C)c(C)c12 | inactive |
| CC(C)c1ccc(C2CC(c3ccc(Br)cc3)=NN2C(N)=S)cc1 (configuration not stated) | inactive |
